Consider one molecule from patent US20120328721A1, “ALOE VERA SPROUT CONCENTRATE OR EXTRACT HAVING SUPERIOR SKIN CELL GROWTH PROMOTION, ANTIOXIDANT, AND ANTI-ALLERGY EFFECTS” (l, priority 2009, published 2012).

For this assay, the system named is type I collagen mRNA. Nature of the assay: Promotion of collagen synthesis (type I collagen mRNA, RT-PCR). The following applies: positive control vitamin C 100 μg/ml. The assay is classed as cell-based. The procedure: To evaluate the inhibitory activity against MMP-1 gene expression of Aloe vera shoot concentrate, the change of mRNA expression was measured. RNA was extracted by using Trizol (Invitrogen, USA) according to the guanidium thiocyanate-phenol-chloroform extraction method, and then RT-PCR was carried out by using an All-in-one RT-PCR kit (SuperBio, Korea). PCR (reverse transcription at 50° C. for 30 minutes, inactivation of reverse transcriptase at 96° C. for 3 minutes, 25 cycles of 94° C. for 1 minute, 48° C. for 1 minute and 72° C. for 1 minute) was carried out by using an MMP-1 primer of Table 9, and actin was used as a control group. To evaluate the activity for the promotion of collagen synthesis of Aloe vera shoot concentrate, the expression of collagen mRNA was measured. RT-PCR was carried out with the same method as Experimental Example 9 except that the condition was 30 cycles of 94° C. for 1 minute, 62° C. for 1 minute and 72 ° C. for 1 minute, and collagen primer of Table 11 was used.

As to `O=C1O[C@H]([C@@H](O)CO)C(O)=C1O` [vitamin C], the “Type I collagen expression amount (%)” value is 131.1% (column 100 μg/ml) and 156.3% (column 200 μg/ml).
